# Assay results as given in patent US7235679B2, “Crystals of a vitamin D derivative and a method for the preparation thereof” (Chugai Seiyaku Kabushiki Kaisha, priority 1996, dated 2007).
# Tests used:
# Format in all cases: physicochemical
# [1] = Stability test of ED-71: purity measurement using reverse phase HPLC; settings: for Purity Measurement Using Reverse Phase HPLC, ED-71 peak / Purity Measurement Using Reverse Phase HPLC, Other peaks / Purity Measurement Using Reverse Phase HPLC, Pre Form peak: 265 nm
# Procedure: (§1) Amorphous and crystalline ED-71 compounds were tested for stability at 10, 25 and […]. To estimate the stability, HPLC quantitative assay and absorbance and purity measurements were utilized. The purity was expressed as peak area ratio in percentage in HPLC (% P.A.R.). The test was carried out by using the following procedures:
# (§2) About 2 mg portions of each of the amorphous and crystalline samples are precisely weighed into transparent 10 ml test tubes each having screw cap, individually.
# (§3) The test tubes are purged with argon using a vacuum desiccator and a glove box. This purging procedure is not applied to the test tubes indicated as “1 M (air)” in the tables below.
# (§4) The test tubes in groups are fixed in thermostatic baths which are respectively controlled at the above temperatures and allowed to stand in the dark. After one (1 W) or two (2 W) weeks or one month (1 M), the test tubes are removed from the baths and subjected to the following assay and measurements:
# HPLC is carried out using 25 μl of the sample solution as prepared in “HPLC quantitative assay” above. • HPLC conditions used: • Column: Inertsil ODS-2 (5×250 mm) • Mobile phase: acetonitrile/water mixture (55/45) • Flow rate: 1 ml/min • Detection: at UV 265 and 220 nm.
# [2] = Stability test of ED-71: absorbance measurement at 265 nm (E 1%); settings: absorbance at 265 nm
# Procedure: as §1, §2, §3, §4
# 1 ml of the sample solution as prepared in “HPLC quantitative assay” above is diluted with absolute ethanol to give a whole volume of 10 ml and this diluted solution is then measured for the absorbance at 265 nm using a ultraviolet spectrophotometer. The absorbance is converted into E 1% value which is derived from Lambert-Beer Law and the conversion is made according to the following equation: E1%=A/cb wherein A is absorbance, c is concentration in g/100 ml and b is length of optical path in cm across the test solution, which is commonly 1. (4) Purity Measurement
# [3] = Stability test of ED-71: purity measurement using normal phase HPLC; settings: 265 nm
# Procedure: as §1, §2, §3, §4
# 1 ml of the sample solution as prepared in “HPLC quantitative assay” above is dried in vacuo to remove the solvent (absolute ethanol). The residue is dissolved in 1 ml of methylene chloride. HPLC assay is carried out using 25 μl of this solution. • HPLC conditions used: • Column: YMC A-004SIL (4.6×300 mm) • Mobile phase: methylene chloride/methanol mixture (96/4) • Flow rate: 1.8 ml/min • Detection: at UV 265 nm.
structure (smiles),measurement,setting,value
"C=C1/C(=C\C=C2/CCC[C@]3(C)[C@@H]([C@H](C)CCCC(C)(C)O)CC[C@@H]23)C[C@@H](O)[C@@H](OCCCO)[C@@H]1O [Crys., 1α,25-dihydroxy-2β-(3-hydroxypropoxy)vitamin D3]","220 nm (%), ED-71 peak","[1]; 10° C., 1 M (air), dark",97.09%
same,"220 nm (%), Other peaks","[1]; 10° C., 1 M (air), dark",1.82%
same,"220 nm (%), Pre Form peak","[1]; 10° C., 1 M (air), dark",1.09%
same,"220 nm (%), ED-71 peak","[1]; 10° C., 1 M, argon, dark",97.44%
same,"220 nm (%), Other peaks","[1]; 10° C., 1 M, argon, dark",1.51%
same,"220 nm (%), Pre Form peak","[1]; 10° C., 1 M, argon, dark",1.05%
same,"220 nm (%), ED-71 peak","[1]; 10° C., 2 W, argon, dark",97.91%
same,"220 nm (%), Other peaks","[1]; 10° C., 2 W, argon, dark",1.09%
same,"220 nm (%), Pre Form peak","[1]; 10° C., 2 W, argon, dark",1.01%
same,"220 nm (%), ED-71 peak","[1]; 10° C., time 0",97.44%
same,"220 nm (%), Other peaks","[1]; 10° C., time 0",2.04%
same,"220 nm (%), Pre Form peak","[1]; 10° C., time 0",0.52%
same,"220 nm (%), ED-71 peak","[1]; 25° C., 1 W, argon, dark",98.17%
same,"220 nm (%), Other peaks","[1]; 25° C., 1 W, argon, dark",1.40%
same,"220 nm (%), Pre Form peak","[1]; 25° C., 1 W, argon, dark",0.44%
same,"220 nm (%), ED-71 peak","[1]; 25° C., 2 W, argon, dark",97.56%
same,"220 nm (%), Other peaks","[1]; 25° C., 2 W, argon, dark",1.43%
same,"220 nm (%), Pre Form peak","[1]; 25° C., 2 W, argon, dark",1.01%
same,"220 nm (%), ED-71 peak","[1]; 25° C., time 0",97.44%
same,"220 nm (%), Other peaks","[1]; 25° C., time 0",2.04%
same,"220 nm (%), Pre Form peak","[1]; 25° C., time 0",0.52%
same,"220 nm (%), ED-71 peak","[1]; 40° C., 1 W, argon, dark",98.18%
same,"220 nm (%), Other peaks","[1]; 40° C., 1 W, argon, dark",1.35%
same,"220 nm (%), Pre Form peak","[1]; 40° C., 1 W, argon, dark",0.47%
same,"220 nm (%), ED-71 peak","[1]; 40° C., 2 W, argon, dark",97.65%
same,"220 nm (%), Other peaks","[1]; 40° C., 2 W, argon, dark",1.33%
same,"220 nm (%), Pre Form peak","[1]; 40° C., 2 W, argon, dark",1.02%
same,"220 nm (%), ED-71 peak","[1]; 40° C., time 0",97.44%
same,"220 nm (%), Other peaks","[1]; 40° C., time 0",2.04%
same,"220 nm (%), Pre Form peak","[1]; 40° C., time 0",0.52%
same,"Purity Measurement Using Reverse Phase HPLC, ED-71 peak","[1]; 10° C., 1 M (air), dark",98.72 % P.A.R
same,"Purity Measurement Using Reverse Phase HPLC, Other peaks","[1]; 10° C., 1 M (air), dark",0.42 % P.A.R
same,"Purity Measurement Using Reverse Phase HPLC, Pre Form peak","[1]; 10° C., 1 M (air), dark",0.86 % P.A.R
same,"Purity Measurement Using Reverse Phase HPLC, ED-71 peak","[1]; 10° C., 1 M, argon, dark",98.77 % P.A.R
same,"Purity Measurement Using Reverse Phase HPLC, Other peaks","[1]; 10° C., 1 M, argon, dark",0.37 % P.A.R
same,"Purity Measurement Using Reverse Phase HPLC, Pre Form peak","[1]; 10° C., 1 M, argon, dark",0.86 % P.A.R
same,"Purity Measurement Using Reverse Phase HPLC, ED-71 peak","[1]; 10° C., 2 W, argon, dark",98.84 % P.A.R
same,"Purity Measurement Using Reverse Phase HPLC, Other peaks","[1]; 10° C., 2 W, argon, dark",0.32 % P.A.R
same,"Purity Measurement Using Reverse Phase HPLC, Pre Form peak","[1]; 10° C., 2 W, argon, dark",0.83 % P.A.R
same,"Purity Measurement Using Reverse Phase HPLC, ED-71 peak","[1]; 10° C., time 0",99.04 % P.A.R
same,"Purity Measurement Using Reverse Phase HPLC, Other peaks","[1]; 10° C., time 0",0.60 % P.A.R
same,"Purity Measurement Using Reverse Phase HPLC, Pre Form peak","[1]; 10° C., time 0",0.36 % P.A.R
same,"Purity Measurement Using Reverse Phase HPLC, ED-71 peak","[1]; 25° C., 1 W, argon, dark",99.35 % P.A.R
same,"Purity Measurement Using Reverse Phase HPLC, Other peaks","[1]; 25° C., 1 W, argon, dark",0.38 % P.A.R
same,"Purity Measurement Using Reverse Phase HPLC, Pre Form peak","[1]; 25° C., 1 W, argon, dark",0.28 % P.A.R
same,"Purity Measurement Using Reverse Phase HPLC, ED-71 peak","[1]; 25° C., 2 W, argon, dark",98.78 % P.A.R
same,"Purity Measurement Using Reverse Phase HPLC, Other peaks","[1]; 25° C., 2 W, argon, dark",0.37 % P.A.R
same,"Purity Measurement Using Reverse Phase HPLC, Pre Form peak","[1]; 25° C., 2 W, argon, dark",0.85 % P.A.R
same,"Purity Measurement Using Reverse Phase HPLC, ED-71 peak","[1]; 25° C., time 0",99.04 % P.A.R
same,"Purity Measurement Using Reverse Phase HPLC, Other peaks","[1]; 25° C., time 0",0.60 % P.A.R
same,"Purity Measurement Using Reverse Phase HPLC, Pre Form peak","[1]; 25° C., time 0",0.36 % P.A.R
same,"Purity Measurement Using Reverse Phase HPLC, ED-71 peak","[1]; 40° C., 1 W, argon, dark",99.40 % P.A.R
same,"Purity Measurement Using Reverse Phase HPLC, Other peaks","[1]; 40° C., 1 W, argon, dark",0.31 % P.A.R
same,"Purity Measurement Using Reverse Phase HPLC, Pre Form peak","[1]; 40° C., 1 W, argon, dark",0.29 % P.A.R
same,"Purity Measurement Using Reverse Phase HPLC, ED-71 peak","[1]; 40° C., 2 W, argon, dark",98.75 % P.A.R
same,"Purity Measurement Using Reverse Phase HPLC, Other peaks","[1]; 40° C., 2 W, argon, dark",0.40 % P.A.R
same,"Purity Measurement Using Reverse Phase HPLC, Pre Form peak","[1]; 40° C., 2 W, argon, dark",0.85 % P.A.R
same,"Purity Measurement Using Reverse Phase HPLC, ED-71 peak","[1]; 40° C., time 0",99.04 % P.A.R
same,"Purity Measurement Using Reverse Phase HPLC, Other peaks","[1]; 40° C., time 0",0.60 % P.A.R
same,"Purity Measurement Using Reverse Phase HPLC, Pre Form peak","[1]; 40° C., time 0",0.36 % P.A.R
same,E 1%,"[2]; 10° C., 1 M (air), dark",341.7
same,E 1%,"[2]; 10° C., 1 M, argon, dark",342.7
same,E 1%,"[2]; 10° C., 2 W, argon, dark",343.8
same,E 1%,"[2]; 10° C., time 0",359.2
same,E 1%,"[2]; 25° C., 1 W, argon, dark",349.5
same,E 1%,"[2]; 25° C., 2 W, argon, dark",341.6
same,E 1%,"[2]; 25° C., time 0",359.2
same,E 1%,"[2]; 40° C., 1 W, argon, dark",349.8
same,E 1%,"[2]; 40° C., 2 W, argon, dark",348.7
same,E 1%,"[2]; 40° C., time 0",359.2
same,"Purity Measurement Using Normal Phase HPLC, ED-71 peak","[3]; 10° C., 1 M (air), dark",98.88 % P.A.R
same,"Purity Measurement Using Normal Phase HPLC, Other peaks","[3]; 10° C., 1 M (air), dark",0.46 % P.A.R
same,"Purity Measurement Using Normal Phase HPLC, Pre Form peak","[3]; 10° C., 1 M (air), dark",0.66 % P.A.R
same,"Purity Measurement Using Normal Phase HPLC, ED-71 peak","[3]; 10° C., 1 M, argon, dark",98.91 % P.A.R
same,"Purity Measurement Using Normal Phase HPLC, Other peaks","[3]; 10° C., 1 M, argon, dark",0.44 % P.A.R
same,"Purity Measurement Using Normal Phase HPLC, Pre Form peak","[3]; 10° C., 1 M, argon, dark",0.65 % P.A.R
same,"Purity Measurement Using Normal Phase HPLC, ED-71 peak","[3]; 10° C., 2 W, argon, dark",99.06 % P.A.R
same,"Purity Measurement Using Normal Phase HPLC, Other peaks","[3]; 10° C., 2 W, argon, dark",0.27 % P.A.R
same,"Purity Measurement Using Normal Phase HPLC, Pre Form peak","[3]; 10° C., 2 W, argon, dark",0.66 % P.A.R
same,"Purity Measurement Using Normal Phase HPLC, ED-71 peak","[3]; 10° C., time 0",99.15 % P.A.R
same,"Purity Measurement Using Normal Phase HPLC, Other peaks","[3]; 10° C., time 0",0.63 % P.A.R
same,"Purity Measurement Using Normal Phase HPLC, Pre Form peak","[3]; 10° C., time 0",0.21 % P.A.R
same,"Purity Measurement Using Normal Phase HPLC, ED-71 peak","[3]; 25° C., 1 W, argon, dark",99.56 % P.A.R
same,"Purity Measurement Using Normal Phase HPLC, Other peaks","[3]; 25° C., 1 W, argon, dark",0.30 % P.A.R
same,"Purity Measurement Using Normal Phase HPLC, Pre Form peak","[3]; 25° C., 1 W, argon, dark",0.14 % P.A.R
same,"Purity Measurement Using Normal Phase HPLC, ED-71 peak","[3]; 25° C., 2 W, argon, dark",98.95 % P.A.R
same,"Purity Measurement Using Normal Phase HPLC, Other peaks","[3]; 25° C., 2 W, argon, dark",0.38 % P.A.R
same,"Purity Measurement Using Normal Phase HPLC, Pre Form peak","[3]; 25° C., 2 W, argon, dark",0.67 % P.A.R
same,"Purity Measurement Using Normal Phase HPLC, ED-71 peak","[3]; 25° C., time 0",99.15 % P.A.R
same,"Purity Measurement Using Normal Phase HPLC, Other peaks","[3]; 25° C., time 0",0.63 % P.A.R
same,"Purity Measurement Using Normal Phase HPLC, Pre Form peak","[3]; 25° C., time 0",0.21 % P.A.R
same,"Purity Measurement Using Normal Phase HPLC, ED-71 peak","[3]; 40° C., 1 W, argon, dark",99.55 % P.A.R
same,"Purity Measurement Using Normal Phase HPLC, Other peaks","[3]; 40° C., 1 W, argon, dark",0.31 % P.A.R
same,"Purity Measurement Using Normal Phase HPLC, Pre Form peak","[3]; 40° C., 1 W, argon, dark",0.14 % P.A.R
same,"Purity Measurement Using Normal Phase HPLC, ED-71 peak","[3]; 40° C., 2 W, argon, dark",98.92 % P.A.R
same,"Purity Measurement Using Normal Phase HPLC, Other peaks","[3]; 40° C., 2 W, argon, dark",0.41 % P.A.R
same,"Purity Measurement Using Normal Phase HPLC, Pre Form peak","[3]; 40° C., 2 W, argon, dark",0.67 % P.A.R
same,"Purity Measurement Using Normal Phase HPLC, ED-71 peak","[3]; 40° C., time 0",99.15 % P.A.R
same,"Purity Measurement Using Normal Phase HPLC, Other peaks","[3]; 40° C., time 0",0.63 % P.A.R
same,"Purity Measurement Using Normal Phase HPLC, Pre Form peak","[3]; 40° C., time 0",0.21 % P.A.R
